US11098102B2, “Insulin conjugates” (SANOFI, priority 2018, dated 2021)
Marks after values point to notes of the source that are not given here.

Assays:
[1] = biological target: T1, immobilized human serum albumin (Homo sapiens, UniProt P02768); assay: Albumin binding: affinity chromatography on columns with immobilized human serum albumin (net retention time); settings: isolated binders; HSA column 25° C., PBS pH 7.4/isopropanol gradient
T1 construct: purchased Chiralpak (Chiraltech) 34712
Experimental: In order to identify suitable binder molecules, which when bound to a peptide, such as an insulin, are able to improve the half-life in plasma and to prolong the profile of action, a system was established based on affinity chromatography with serum albumin columns, i.e. columns with immobilized serum albumin.
The net retention time of the binders (samples) was calculated according to the following formula: Net retention time=RetTimeSample−RetTimet0 marker
• Instrument: Waters Alliance 2795/Waters PDA 2996 or Waters H-Class UPLC equipped with a Waters Acquity photodiode-array detector • Software: Waters Empower 3 • Column: […]® HSA 50×4 mm; 5 μm Particle size • Chiraltech Order Numbers: HSA: 34712 • Eluent A: Phosphate Buffer saline (PBS) at pH=7.4 • Gibco PBS pH7.4 (10×) Phosphate Buffered Saline 500 ml; • Order Number: 70011-036 (500 ml) • Eluent B: Isopropanol • Fisher Order Number: A461-1 (10 • Gradient:
• Column temperature: 25° C. • Flow rate: 1.0 ml/min • Detection: λ=220 nm • Injection volume: 20 μL • Sample Conc.: 1 mg/ml insulin solution in PBS for insulin samples • 5 μL of 10 mM DMSO stock solution (DMSO evaporated and re-dissolved in 200 μL i-propanol/water 1:1 v/v) for isolated binder samples (250 μM, 0.2 mg/ml at 800 Da MolWeight) • t0 marker Sodium Nitrate (NaNO3) solution in water, 0.05 mg/ml • Diluted from aqueous 1 mg/ml stock solution (Fluka Order Number: 74246-100ML) • Reported Value Net retention time of sample: RetTime Sample−RetTime t0 marker
Affinity chromatography was carried out i) for insulin conjugates according to Examples 3.3 and 3.4 on a Waters Alliance Separation Module 2695 equipped with a Waters photodiode-array detector 2996 or Waters H-Class UPLC equipped with a Waters Acquity photodiode-array detector and ii) for isolated binders according to Example 2.11 on a Waters Alliance Separation Module 2795 equipped with a Waters photodiode-array detector 2996 or Waters H-Class UPLC equipped with a Waters Acquity photodiode-array detector.
Columns with immobilized human serum albumin (50×4 mm; 5 μm particle size) were purchased from Chiralpak and used for separations.
The columns with immobilized serum albumin were kept at 25° C. during the LC run, UV detection was carried out at 220 nm and injection volume was 20 μL.
The net retention time of the samples was reported according to Net retention time=RetTime Sample−RetTime t0 marker

[2] = biological target: T2, insulin receptor isoform B (IR-B) (Homo sapiens, UniProt P06213); assay: Insulin receptor autophosphorylation assay (In-Cell Western, CHO cells, Example 8B); type: cell-based; design: expressed in transfected cells; host or cells: CHO cells; settings: relative to human insulin
[3] = biological target: T2, insulin receptor isoform B (IR-B); assay: Insulin receptor binding affinity assay of insulin analogs (Example 8A, SPA competition binding); design: expressed in transfected cells; host or cells: CHO cells overexpressing the IR; isolated plasma membranes; settings: relative to human insulin; a value of 0 means below the detection limit
Experimental: Methods for determining the binding affinity of an insulin analog to an insulin receptor are well known in the art. […] The insulin receptor can be present in a membrane of a cell, e.g. of CHO (Chinese Hamster Ovary) cell, which overexpresses a recombinant insulin receptor. In an embodiment, the insulin receptor binding affinity is determined as described in the Examples section.
Insulin receptor binding affinity for the analogs listed in Table 4 was determined as described in Hartmann et al. (Effect of the long-acting insulin analogs glargine and degludec on cardiomyocyte cell signaling and function. Cardiovasc Diabetol. 2016; 15:96). Isolation of insulin receptor embedded plasma membranes (M-IR) and competition binding experiments were performed as previously described (Sommerfeld et al., PLoS One. 2010; 5 (3): e9540). Briefly, CHO-cells overexpressing the IR were collected and re-suspended in ice-cold 2.25 STM buffer (2.25 M sucrose, 5 mM Tris-HCl pH 7.4, 5 mM MgCl2, complete protease inhibitor) and disrupted using a Dounce homogenizer followed by sonication. The homogenate was overlaid with 0.8 STM buffer (0.8 M sucrose, 5 mM Tris-HCl pH 7.4, 5 mM MgCl2, complete protease inhibitor) and ultra-centrifuged for 90 min at 100,000 g. Plasma membranes at the interface were collected and washed twice with phosphate buffered saline (PBS). The final pellet was re-suspended in dilution buffer (50 mM Tris-HCl pH 7.4, 5 mM MgCl2, complete protease inhibitor) and again homogenized with a Dounce homogenizer. Competition binding experiments were performed in a binding buffer (50 mM Tris-HCl, 150 mM NaCl, 0.1% BSA, complete protease inhibitor, adjusted to pH 7.8) in 96-well microplates. In each well 2 μg isolated membrane was incubated with 0.25 mg wheat germ agglutinin polyvinyltoluene polyethylenimine scintillation proximity assay (SPA) beads. […] The radioactivity was measured at equilibrium in a microplate scintillation counter (Wallac Microbeta, Freiburg, Germany).”

T1 sequence (P02768 25-609): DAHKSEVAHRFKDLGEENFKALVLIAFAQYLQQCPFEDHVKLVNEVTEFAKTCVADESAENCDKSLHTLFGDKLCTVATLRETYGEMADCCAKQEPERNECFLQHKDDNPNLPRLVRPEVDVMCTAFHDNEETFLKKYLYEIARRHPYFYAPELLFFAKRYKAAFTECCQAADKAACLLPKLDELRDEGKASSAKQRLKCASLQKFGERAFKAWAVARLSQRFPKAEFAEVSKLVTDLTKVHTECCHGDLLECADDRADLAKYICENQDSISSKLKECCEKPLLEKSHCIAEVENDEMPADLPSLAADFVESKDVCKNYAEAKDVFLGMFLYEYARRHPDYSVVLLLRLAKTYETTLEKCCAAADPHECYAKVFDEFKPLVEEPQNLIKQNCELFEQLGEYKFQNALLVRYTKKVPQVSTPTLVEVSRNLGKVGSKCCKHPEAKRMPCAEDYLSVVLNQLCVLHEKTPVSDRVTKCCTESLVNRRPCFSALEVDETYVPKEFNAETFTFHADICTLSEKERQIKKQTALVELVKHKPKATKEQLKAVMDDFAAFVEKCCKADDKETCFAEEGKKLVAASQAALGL
T2 sequence (P06213 28-758 limits assumed): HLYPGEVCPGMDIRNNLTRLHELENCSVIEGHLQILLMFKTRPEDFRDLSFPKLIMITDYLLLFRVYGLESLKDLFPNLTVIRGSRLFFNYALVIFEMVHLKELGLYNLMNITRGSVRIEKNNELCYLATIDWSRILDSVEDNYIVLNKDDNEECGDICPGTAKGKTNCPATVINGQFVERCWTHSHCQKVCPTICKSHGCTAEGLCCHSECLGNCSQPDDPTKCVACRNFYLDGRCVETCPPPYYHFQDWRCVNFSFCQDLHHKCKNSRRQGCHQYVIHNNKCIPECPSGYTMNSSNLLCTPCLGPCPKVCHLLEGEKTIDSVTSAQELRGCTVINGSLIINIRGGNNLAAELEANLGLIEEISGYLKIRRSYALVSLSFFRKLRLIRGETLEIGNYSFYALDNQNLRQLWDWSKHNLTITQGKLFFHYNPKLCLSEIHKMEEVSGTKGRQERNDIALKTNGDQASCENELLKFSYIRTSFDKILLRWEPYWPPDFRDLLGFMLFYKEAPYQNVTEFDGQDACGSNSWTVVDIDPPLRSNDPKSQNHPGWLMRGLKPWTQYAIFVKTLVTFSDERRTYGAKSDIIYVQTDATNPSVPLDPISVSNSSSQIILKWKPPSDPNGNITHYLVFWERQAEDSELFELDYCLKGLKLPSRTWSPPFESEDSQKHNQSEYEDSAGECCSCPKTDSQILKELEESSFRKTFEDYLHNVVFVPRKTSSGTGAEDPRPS
T2 sequence (P06213 763-1382 limits assumed): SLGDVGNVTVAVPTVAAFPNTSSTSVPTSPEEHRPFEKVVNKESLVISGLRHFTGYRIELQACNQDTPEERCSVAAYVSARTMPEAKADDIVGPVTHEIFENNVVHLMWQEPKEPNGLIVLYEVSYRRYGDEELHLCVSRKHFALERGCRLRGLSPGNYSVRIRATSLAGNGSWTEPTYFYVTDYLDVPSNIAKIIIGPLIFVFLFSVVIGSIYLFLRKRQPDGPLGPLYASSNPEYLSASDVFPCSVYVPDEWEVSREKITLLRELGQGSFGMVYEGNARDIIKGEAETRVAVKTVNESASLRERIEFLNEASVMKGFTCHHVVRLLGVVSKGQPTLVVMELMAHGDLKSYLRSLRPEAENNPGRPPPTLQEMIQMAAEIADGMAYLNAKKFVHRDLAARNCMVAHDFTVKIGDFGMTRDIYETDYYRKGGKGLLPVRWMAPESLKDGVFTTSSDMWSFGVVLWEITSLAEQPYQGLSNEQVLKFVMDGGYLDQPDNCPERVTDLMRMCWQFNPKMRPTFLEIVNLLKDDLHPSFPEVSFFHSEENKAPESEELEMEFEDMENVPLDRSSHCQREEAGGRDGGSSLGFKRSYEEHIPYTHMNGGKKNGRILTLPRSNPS

Row | SMILES | NRT [min] (net retention time on columns with immobilized human serum albumin) [1] | autophosphorylation activity [2] | Insulin-receptor binding affinity [3]
1 | O=C(O)CCCCCCCCCCCOc1ccc(S(=O)(=O)Nc2ccc(C(=O)NCCOCCOCC(=O)NCCOCCOCC(=O)O)cn2)cc1 [Binder 18] | 12.37 | 0.18 | 0.23
2 | O=C(O)CCCCCCCCCCCc1ccc(Oc2ccc(S(=O)(=O)Nc3ccc(C(=O)NCCOCCOCC(=O)NCCOCCOCC(=O)O)cn3)cc2)cc1 [Binder 27] | 15.01 | 0.11 | –
3 | O=C(O)CCCCCCCCCCCCCOc1ccc(S(=O)(=O)Nc2ncc(C(=O)NCCOCCOCC(=O)NCCOCCOCC(=O)O)cn2)cc1 [Binder 33] | 13.57 | 0.02 | 0.01
4 | O=C(O)CCCCCCCCCCCc1cc(Oc2ccc(S(=O)(=O)Nc3ncc(C(=O)NCCOCCOCC(=O)NCCOCCOCC(=O)O)cn3)cc2)ccc1F [Binder 28] | 15.39 | 0.11 | 0.12
5 | O=C(O)CCCCCCCCCCCCCCOc1ccc(S(=O)(=O)Nc2ncc(C(=O)CCCCCCC(=O)NCCOCCOCC(=O)NCCOCCOCC(=O)O)cn2)cc1 [Binder 6] | 14.31 | 0.32 | –
6 | O=C(O)CCCCCCCCCCCOc1ccc(CCc2ccc(S(=O)(=O)Nc3ncc(C(=O)NCCOCCOCC(=O)NCCOCCOCC(=O)O)cn3)cc2)cc1 [Binder 3] | 17.51 | 0.34 | 0.24
7 | O=C(O)CCCCCCCCCc1ccc(CCOc2ccc(S(=O)(=O)Nc3ncc(C(=O)NCCOCCOCC(=O)NCCOCCOCC(=O)O)cn3)cc2)cc1 [Binder 10] | 15.65 | 0.31 | 0.37
8 | O=C(O)CCCCCCCCCCCCCc1ccc(S(=O)(=O)Nc2ccc(C(=O)NCCOCCOCC(=O)NCCOCCOCC(=O)O)cn2)cc1 [Binder 30] | 14.36 | 0.01 | 0**
9 | O=C(O)CCCCCCCCCCCCCc1ccc(S(=O)(=O)Nc2ccc(C(=O)NCCOCCOCC(=O)NCCOCCOCC(=O)O)cn2)cc1 [Binder 20] | 14.8 | 0.28 | 0.4
10 | O=C(O)CCCCCCCCCCCc1cccc(S(=O)(=O)Nc2ccc(C(=O)NCCOCCOCC(=O)NCCOCCOCC(=O)O)cn2)c1 [Binder 40] | 11.44 | 0.01 | 0.01
11 | O=C(O)CCCCCCCCCCCCCc1cccc(S(=O)(=O)Nc2ncc(C(=O)NCCOCCOCC(=O)NCCOCCOCC(=O)O)cn2)c1 [Binder 29] | 15.66 | 0.01 | –
12 | O=C(O)CCCCCCCCCc1ccc(CCOc2ccc(S(=O)(=O)Nc3ccc(C(=O)NCCOCCOCC(=O)NCCOCCOCC(=O)O)cn3)cc2)cc1 [Binder 26] | 14.98 | 0.07 | 0.01
13 | O=C(O)CCCCCCCCCCCCCCCOc1ccc(S(=O)(=O)Nc2ccc(C(=O)NCCOCCOCC(=O)NCCOCCOCC(=O)O)cn2)cc1F [Binder 39] | 13.68 | 0.02 | 0
14 | O=C(O)CCCCCCCCCCCCCCCc1ccc(S(=O)(=O)Nc2ccc(C(=O)NCCOCCOCC(=O)NCCOCCOCC(=O)O)cn2)cc1 [Binder 59] | 15.47 | – | –
15 | O=C(O)CCCCCCCCCCCCCc1ccc(OCc2ccc(S(=O)(=O)Nc3ccc(C(=O)NCCOCCOCC(=O)NCCOCCOCC(=O)O)cn3)cc2)cc1 [Binder 44] | 15.04 | – | –
16 | O=C(O)CCCCCCCCCCCCCOc1ccc(S(=O)(=O)Nc2ccc(C(=O)NCCOCCOCC(=O)NCCOCCOCC(=O)O)cn2)cc1 [Binder 32] | 13.9 | 0.04 | 0
17 | O=C(O)CCCCCCCCCCCCCCOc1ccc(S(=O)(=O)Nc2ncc(C(=O)NCCOCCOCC(=O)NCCOCCOCC(=O)O)cn2)cc1 [Binder 5] | 14.32 | – | –
18 | O=C(O)CCCCCCCCCCCCCCc1cc(Oc2ccc(S(=O)(=O)Nc3ncc(C(=O)NCCOCCOCC(=O)NCCOCCOCC(=O)O)cn3)cc2)ccc1F [Binder 13] | 15.29 | 0.1 | 0.11
19 | O=C(O)CCCCCCCCCCCCCCCCCc1ccc(S(=O)(=O)Nc2ncc(C(=O)NCCOCCOCC(=O)NCCOCCOCC(=O)O)cn2)cc1 [Binder 4] | 15.75 | 0.4 | 0.57
20 | O=C(O)CCCCCCCc1ccc(CCOc2ccc(S(=O)(=O)Nc3ccc(C(=O)NCCOCCOCC(=O)NCCOCCOCC(=O)O)cn3)cc2)cc1 [Binder 46] | 14.48 | – | –
21 | O=C(O)CCCCCCCCCCCCCCCCCOc1ccc(S(=O)(=O)Nc2ncc(C(=O)NCCOCCOCC(=O)NCCOCCOCC(=O)O)cn2)cc1 [Binder 69] | 14.24 | – | –
22 | O=C(O)CCCCCCCCCCCCCc1ccc(Oc2ccc(S(=O)(=O)Nc3ccc(C(=O)NCCOCCOCC(=O)NCCOCCOCC(=O)O)cn3)cc2)cc1 [Binder 42] | 14.35 | – | –
23 | O=C(O)CCCCCCCCCCCCCCCCCc1cccc(S(=O)(=O)Nc2ncc(C(=O)NCCOCCOCC(=O)NCCOCCOCC(=O)O)cn2)c1 [Binder 41] | 14.98 | – | –
24 | O=C(O)CCCCCCCCCCCCCCCOc1ccc(S(=O)(=O)Nc2ccc(C(=O)NCCOCCOCC(=O)NCCOCCOCC(=O)O)cn2)cc1Cl [Binder 51] | 13.59 | – | –
25 | O=C(O)CCCCCCCCCCCc1ccc(S(=O)(=O)Nc2ncc(C(=O)NCCOCCOCC(=O)NCCOCCOCC(=O)O)cn2)cc1 [Binder 53] | 12.29 | – | –
26 | O=C(O)CCCCCCCCCCCCCc1cc(Oc2ccc(S(=O)(=O)Nc3ncc(C(=O)NCCOCCOCC(=O)NCCOCCOCC(=O)O)cn3)cc2)ccc1F [Binder 8] | 15.29 | 0.17 | –
